{"source": "ChEMBL document CHEMBL1275392", "about": "“Assessment of chemoselective neoglycosylation methods using chlorambucil as a model” (2010)", "format_in_all_cases": "functional", "key": {"HOP-92": {"system": "HOP-92", "experiment": "Growth inhibition of human HOP92 cells after 7 days by celltiter-glo assay", "details": "HOP-92, 168 h"}, "HOP-62": {"system": "HOP-62", "experiment": "Growth inhibition of human HOP62 cells after 7 days by celltiter-glo assay", "details": "HOP-62, 168 h"}, "HT-29": {"system": "HT-29", "experiment": "Ratio of compound GI50 to chlorambucil GI50 for human HT-29 cells"}, "NCI-H522": {"system": "NCI-H522", "experiment": "Growth inhibition of human NCI-H522 cells at 10 uM after 7 days by celltiter-glo assay", "details": "NCI-H522, 168 h, read-out: GI"}, "NCI-H226": {"system": "NCI-H226", "experiment": "Growth inhibition of human NCI-H226 cells at 10 uM after 7 days by celltiter-glo assay", "details": "NCI-H226, 168 h, read-out: GI"}, "SF-295 [1]": {"system": "SF-295", "experiment": "Growth inhibition of human SF295 cells after 7 days by celltiter-glo assay", "details": "SF-295, 168 h"}, "A498": {"system": "A498", "experiment": "Growth inhibition of human A498 cells at 10 uM after 7 days by celltiter-glo assay", "details": "A498, 168 h, read-out: GI"}, "T47D": {"system": "T47D", "experiment": "Growth inhibition of human T47D cells at 10 uM after 7 days by celltiter-glo assay", "details": "168 h, read-out: GI"}, "SF-268 [2]": {"system": "SF-268", "experiment": "Growth inhibition of human SF268 cells after 7 days by celltiter-glo assay", "details": "SF-268, 168 h"}, "OVCAR-8": {"system": "OVCAR-8", "experiment": "Growth inhibition of human OVCAR8 cells at 10 uM after 7 days by celltiter-glo assay", "details": "OVCAR-8, 168 h, read-out: GI"}, "BT-549": {"system": "BT-549", "experiment": "Growth inhibition of human BT549 cells at 10 uM after 7 days by celltiter-glo assay", "details": "BT-549, 168 h, read-out: GI"}, "Malme-3M": {"system": "Malme-3M", "experiment": "Growth inhibition of human MALME-3M cells after 7 days by celltiter-glo assay", "details": "168 h"}, "SF-295 [3]": {"system": "SF-295", "experiment": "Growth inhibition of human SF295 cells at 10 uM after 7 days by celltiter-glo assay", "details": "SF-295, 168 h, read-out: GI"}, "COLO 205": {"system": "COLO 205", "experiment": "Growth inhibition of human COLO205 cells after 7 days by celltiter-glo assay", "details": "COLO 205, 168 h"}, "MDA-MB-435": {"system": "MDA-MB-435", "experiment": "Growth inhibition of human MDA-MB-435 cells after 7 days by celltiter-glo assay", "details": "MDA-MB-435, 168 h"}, "ACHN": {"system": "ACHN", "experiment": "Growth inhibition of human ACHN cells at 10 uM after 7 days by celltiter-glo assay", "details": "168 h, read-out: GI"}, "NCI-H322M [4]": {"system": "NCI-H322M", "experiment": "Growth inhibition of human NCI-H322M cells after 7 days by celltiter-glo assay", "details": "168 h"}, "SF-539": {"system": "SF-539", "experiment": "Growth inhibition of human SF539 cells after 7 days by celltiter-glo assay", "details": "SF-539, 168 h"}, "786-0": {"system": "786-0", "experiment": "Growth inhibition of human 786-0 cells after 7 days by celltiter-glo assay", "details": "786-0, 168 h"}, "DU-145": {"system": "DU-145", "experiment": "Growth inhibition of human DU145 cells at 10 uM after 7 days by celltiter-glo assay", "details": "DU-145, 168 h, read-out: GI"}, "NCI-H322M [5]": {"system": "NCI-H322M", "experiment": "Growth inhibition of human NCI-H322M cells at 10 uM after 7 days by celltiter-glo assay", "details": "168 h, read-out: GI"}, "NCI-H460": {"system": "NCI-H460", "experiment": "Growth inhibition of human NCI-H460 cells after 7 days by celltiter-glo assay", "details": "NCI-H460, 168 h"}, "OVCAR-4": {"system": "OVCAR-4", "experiment": "Growth inhibition of human OVCAR4 cells after 7 days by celltiter-glo assay", "details": "OVCAR-4, 168 h"}, "SF-268 [6]": {"system": "SF-268", "experiment": "Growth inhibition of human SF268 cells at 10 uM after 7 days by celltiter-glo assay", "details": "SF-268, 168 h, read-out: GI"}, "CCRF-CEM": {"system": "CCRF-CEM", "experiment": "Growth inhibition of human CCRF-CEM cells after 7 days by celltiter-glo assay", "details": "168 h"}, "SK-OV-3": {"system": "SK-OV-3", "experiment": "Growth inhibition of human SKOV3 cells at 10 uM after 7 days by celltiter-glo assay", "details": "SK-OV-3, 168 h, read-out: GI"}}, "data": [{"molecule": "CON(CCCc1ccc(N(CCCl)CCCl)cc1)C1OC[C@@H](O)[C@@H]1O", "note": "(stereo partly specified)", "values": [{"measurement": "GI50", "setting": "HOP-92", "result": 4.03, "unit": "µM"}, {"measurement": "GI50", "setting": "HOP-62", "result": 8.28, "unit": "µM"}, {"measurement": "RatioGI50", "setting": "HT-29", "result": 12}, {"measurement": "inhibition of growth at 10 µM", "setting": "NCI-H522", "result": 52.4, "unit": "%"}, {"measurement": "inhibition of growth at 10 µM", "setting": "NCI-H226", "result": 84.2, "unit": "%"}, {"measurement": "GI50", "setting": "SF-295 [1]", "result": 6.47, "unit": "µM"}, {"measurement": "inhibition of growth at 10 µM", "setting": "A498", "result": 114, "unit": "%"}, {"measurement": "inhibition of growth at 10 µM", "setting": "T47D", "result": 48, "unit": "%"}, {"measurement": "GI50", "setting": "SF-268 [2]", "result": 1.5, "unit": "µM"}, {"measurement": "inhibition of growth at 10 µM", "setting": "OVCAR-8", "result": 68.1, "unit": "%"}, {"measurement": "inhibition of growth at 10 µM", "setting": "BT-549", "result": 38.5, "unit": "%"}, {"measurement": "GI50", "setting": "Malme-3M", "result": 20.2, "unit": "µM"}, {"measurement": "inhibition of growth at 10 µM", "setting": "SF-295 [3]", "result": 56.6, "unit": "%"}, {"measurement": "GI50", "setting": "COLO 205", "result": 12.7, "unit": "µM"}, {"measurement": "GI50", "setting": "MDA-MB-435", "result": 21.1, "unit": "µM"}, {"measurement": "inhibition of growth at 10 µM", "setting": "ACHN", "result": 14.3, "unit": "%"}, {"measurement": "GI50", "setting": "NCI-H322M [4]", "result": "> 100", "unit": "µM"}, {"measurement": "GI50", "setting": "SF-539", "result": 8.8, "unit": "µM"}, {"measurement": "GI50", "setting": "786-0", "result": 6.16, "unit": "µM"}, {"measurement": "inhibition of growth at 10 µM", "setting": "DU-145", "result": 56.8, "unit": "%"}, {"measurement": "inhibition of growth at 10 µM", "setting": "NCI-H322M [5]", "result": 99, "unit": "%"}, {"measurement": "GI50", "setting": "NCI-H460", "result": 1.7, "unit": "µM"}, {"measurement": "GI50", "setting": "OVCAR-4", "result": 29.2, "unit": "µM"}, {"measurement": "inhibition of growth at 10 µM", "setting": "SF-268 [6]", "result": 67.8, "unit": "%"}, {"measurement": "GI50", "setting": "CCRF-CEM", "result": 2.36, "unit": "µM"}, {"measurement": "inhibition of growth at 10 µM", "setting": "SK-OV-3", "result": 72.8, "unit": "%"}]}]}
